Laboratory results from patent US20080279907A1, “Antimicrobial medical devices and methods for making and using same” (Ash Access Technology, Inc., priority 2007, published 2008).

Experiments:
[1] = Desorption of parabens from paraben impregnated polycarbonate catheter pieces in 0.24 M sodium citrate pH 6.2 (HPLC); assay type: physicochemical
Experimental: One inch polycarbonate catheter pieces including a surface area of about 4.64 cm^2 were impregnated with methyl paraben and propyl paraben. A solution of 100% 1,2-propanediol was prepared with 9% methyl paraben and 2% propyl paraben. Pairs of the one inch catheter pieces were placed into three 25 ml flasks including 10 ml of the 1,2-propanediol and paraben solution. The flasks including the catheter pieces were placed on a shaker at 220 rpm and 27° C. for two, four, or nine hour time periods. At the end of each time period, the catheter pieces were removed, rinsed with distilled water, and dried.
Desorption analysis of the paraben impregnated catheter pieces was performed in 0.24 M sodium citrate with a pH of 6.2. The total amount of either methyl paraben or propyl paraben released from the catheter pieces was calculated using HPLC analysis performed with a Waters Alliance 2690 including a 996 Photodiode Array Detector. Each calculation used a solution of HPLC grade H2O, methanol (MeOH), and acetonitrile (CAN) which were pre-filtered through a Millipore 0.45 μm nylon filter before use. Trifluoracetic acid (TFA) was added to H2O and acetonitrile (ACN) to 0.1%. A Waters Symmetry column (C8 3.9×150 mm, 5 μm) was applied with a Waters guard column (Waters, Sentry Guard column, Nova-Pak C18, 60A, 4 μm 3.9×20 mm).
A gradient of 67% H2O/33% ACN was used for 6.5 min, ramped to 45 %/55% from 6.5 to 7.0 min, and kept at 45%/55% until 15.0 min, at 15.0 min the concentration reverted to 67%/33%, and the system was run until 18 min. Injection volume for each sample was 10 μl and samples and column were run at ambient temperature.
Table 2 includes the graphical data represented in FIG. 8 and associated with the desorption of propyl paraben from the paraben impregnated catheter pieces prepared as discussed above. Again, the samples were impregnated only with parabens and desorbed in 10 ml 0.24 M Na-citrate, pH 6.2 over time.

[2] = Perfusion of parabens and methylene blue through polycarbonate membrane in perfusion chamber (HPLC of lower chamber); assay type: physicochemical
Experimental: An experiment was performed to determine a method for perfusing methylene blue, methyl paraben, and propyl paraben through a polycarbonate membrane with causing only minimal changes to the strength and elasticity of the membrane. In FIG. 12, there is illustrated a perfusion chamber system 50 used during the experiment. System 50 includes an upper chamber 51 and a lower chamber 52 separated by a polycarbonate membrane 53 having a thickness of 0.60 mm. The upper and lower chambers 51, 52 are generally structured to hold 10.5 cm^3 or 10.5 ml of fluid. The upper chamber 51 was connected to a peristaltic pump (not shown) and the lower chamber 52 was filled with distilled water. First and second solutions, respectively including the parabens and the methylene blue, were prepared in accordance with the method set forth in EXAMPLE 6 above. As best seen in Tables 6 and 7 below, the solutions were connected to the pump and passed through the first chamber 51 at a constant rate at 37° C. over various lengths of time.
Table 6 includes data obtained from HPLC analysis comparing the methyl paraben, propyl paraben, and methylene blue concentrations in the lower chamber 52. The parameters for the methyl and propyl paraben and methylene blue treatments are indicated in the left hand columns.

[3] = lower chamber, 20% PG/80% DI H2O (0.9% MP, 0.2% PP) ~9 hrs at 37 C., then MB ~10 days

SMILES: COC(=O)c1ccc(O)cc1 [MP, methyl paraben]
- desorption by the end of the study ([1]; nearly 3 months, FIGS. 8 and 9): negligible desorption
- period of significant release ([1]; paraben impregnated catheter pieces, 0.24 M Na-citrate pH 6.2): 10 days
- Total MP released (mg)/1″ catheter ([1]; treatment 2 hrs (100% PG, 9% MP, 2% PP), time 1 hour): 0.361 mg/1″ catheter
- Total MP released (mg)/1″ catheter ([1]; treatment 2 hrs (100% PG, 9% MP, 2% PP), time 3 hours): 0.577 mg/1″ catheter
- Total MP released (mg)/1″ catheter ([1]; treatment 2 hrs (100% PG, 9% MP, 2% PP), time 7 hours): 0.84 mg/1″ catheter
- Total MP released (mg)/1″ catheter ([1]; treatment 2 hrs (100% PG, 9% MP, 2% PP), time 24 hours): 1.17 mg/1″ catheter
- Total MP released (mg)/1″ catheter ([1]; treatment 2 hrs (100% PG, 9% MP, 2% PP), time 4 days): 1.519 mg/1″ catheter
- Total MP released (mg)/1″ catheter ([1]; treatment 2 hrs (100% PG, 9% MP, 2% PP), time 5 days): 1.685 mg/1″ catheter
- Total MP released (mg)/1″ catheter ([1]; treatment 2 hrs (100% PG, 9% MP, 2% PP), time 6 days): 1.826 mg/1″ catheter
- Total MP released (mg)/1″ catheter ([1]; treatment 2 hrs (100% PG, 9% MP, 2% PP), time 8 days): 2.002 mg/1″ catheter
- Total MP released (mg)/1″ catheter ([1]; treatment 2 hrs (100% PG, 9% MP, 2% PP), time 11 days): 2.129 mg/1″ catheter
- Total MP released (mg)/1″ catheter ([1]; treatment 2 hrs (100% PG, 9% MP, 2% PP), time 13 days): 2.208 mg/1″ catheter
- Total MP released (mg)/1″ catheter ([1]; treatment 2 hrs (100% PG, 9% MP, 2% PP), time 15 days): 2.281 mg/1″ catheter
- Total MP released (mg)/1″ catheter ([1]; treatment 2 hrs (100% PG, 9% MP, 2% PP), time 18 days): 2.325 mg/1″ catheter
- Total MP released (mg)/1″ catheter ([1]; treatment 2 hrs (100% PG, 9% MP, 2% PP), time 22 days): 2.356 mg/1″ catheter
- Total MP released (mg)/1″ catheter ([1]; treatment 2 hrs (100% PG, 9% MP, 2% PP), time 29 days): 2.377 mg/1″ catheter
- Total MP released (mg)/1″ catheter ([1]; treatment 2 hrs (100% PG, 9% MP, 2% PP), time 36 days): 2.392 mg/1″ catheter
- Total MP released (mg)/1″ catheter ([1]; treatment 2 hrs (100% PG, 9% MP, 2% PP), time 50 days): 2.402 mg/1″ catheter
- Total MP released (mg)/1″ catheter ([1]; treatment 2 hrs (100% PG, 9% MP, 2% PP), time 67 days): 2.409 mg/1″ catheter
- Total MP released (mg)/1″ catheter ([1]; treatment 2 hrs (100% PG, 9% MP, 2% PP), time 81 days): 2.413 mg/1″ catheter
- Total MP released (mg)/1″ catheter ([1]; treatment 4 hrs (100% PG, 9% MP, 2% PP), time 1 hour): 0.603 mg/1″ catheter
- Total MP released (mg)/1″ catheter ([1]; treatment 4 hrs (100% PG, 9% MP, 2% PP), time 3 hours): 1.04 mg/1″ catheter
- Total MP released (mg)/1″ catheter ([1]; treatment 4 hrs (100% PG, 9% MP, 2% PP), time 7 hours): 1.472 mg/1″ catheter
- Total MP released (mg)/1″ catheter ([1]; treatment 4 hrs (100% PG, 9% MP, 2% PP), time 24 hours): 2.223 mg/1″ catheter
- Total MP released (mg)/1″ catheter ([1]; treatment 4 hrs (100% PG, 9% MP, 2% PP), time 4 days): 2.774 mg/1″ catheter
- Total MP released (mg)/1″ catheter ([1]; treatment 4 hrs (100% PG, 9% MP, 2% PP), time 5 days): 3.01 mg/1″ catheter
- Total MP released (mg)/1″ catheter ([1]; treatment 4 hrs (100% PG, 9% MP, 2% PP), time 6 days): 3.146 mg/1″ catheter
- Total MP released (mg)/1″ catheter ([1]; treatment 4 hrs (100% PG, 9% MP, 2% PP), time 8 days): 3.324 mg/1″ catheter
- Total MP released (mg)/1″ catheter ([1]; treatment 4 hrs (100% PG, 9% MP, 2% PP), time 11 days): 3.449 mg/1″ catheter
- Total MP released (mg)/1″ catheter ([1]; treatment 4 hrs (100% PG, 9% MP, 2% PP), time 13 days): 3.536 mg/1″ catheter
- Total MP released (mg)/1″ catheter ([1]; treatment 4 hrs (100% PG, 9% MP, 2% PP), time 15 days): 3.597 mg/1″ catheter
- Total MP released (mg)/1″ catheter ([1]; treatment 4 hrs (100% PG, 9% MP, 2% PP), time 18 days): 3.646 mg/1″ catheter
- Total MP released (mg)/1″ catheter ([1]; treatment 4 hrs (100% PG, 9% MP, 2% PP), time 22 days): 3.676 mg/1″ catheter
- Total MP released (mg)/1″ catheter ([1]; treatment 4 hrs (100% PG, 9% MP, 2% PP), time 29 days): 3.701 mg/1″ catheter
- Total MP released (mg)/1″ catheter ([1]; treatment 4 hrs (100% PG, 9% MP, 2% PP), time 36 days): 3.722 mg/1″ catheter
- Total MP released (mg)/1″ catheter ([1]; treatment 4 hrs (100% PG, 9% MP, 2% PP), time 50 days): 3.74 mg/1″ catheter
- Total MP released (mg)/1″ catheter ([1]; treatment 4 hrs (100% PG, 9% MP, 2% PP), time 67 days): 3.749 mg/1″ catheter
- Total MP released (mg)/1″ catheter ([1]; treatment 4 hrs (100% PG, 9% MP, 2% PP), time 81 days): 3.755 mg/1″ catheter
- Total MP released (mg)/1″ catheter ([1]; treatment 9 hrs (100% PG, 9% MP, 2% PP), time 1 hour): 0.67 mg/1″ catheter
- Total MP released (mg)/1″ catheter ([1]; treatment 9 hrs (100% PG, 9% MP, 2% PP), time 3 hours): 1.18 mg/1″ catheter
- Total MP released (mg)/1″ catheter ([1]; treatment 9 hrs (100% PG, 9% MP, 2% PP), time 7 hours): 1.504 mg/1″ catheter
- Total MP released (mg)/1″ catheter ([1]; treatment 9 hrs (100% PG, 9% MP, 2% PP), time 24 hours): 1.993 mg/1″ catheter
- Total MP released (mg)/1″ catheter ([1]; treatment 9 hrs (100% PG, 9% MP, 2% PP), time 4 days): 2.725 mg/1″ catheter
- Total MP released (mg)/1″ catheter ([1]; treatment 9 hrs (100% PG, 9% MP, 2% PP), time 5 days): 3.082 mg/1″ catheter
- Total MP released (mg)/1″ catheter ([1]; treatment 9 hrs (100% PG, 9% MP, 2% PP), time 6 days): 3.27 mg/1″ catheter
- Total MP released (mg)/1″ catheter ([1]; treatment 9 hrs (100% PG, 9% MP, 2% PP), time 8 days): 3.456 mg/1″ catheter
- Total MP released (mg)/1″ catheter ([1]; treatment 9 hrs (100% PG, 9% MP, 2% PP), time 11 days): 3.593 mg/1″ catheter
- Total MP released (mg)/1″ catheter ([1]; treatment 9 hrs (100% PG, 9% MP, 2% PP), time 13 days): 3.676 mg/1″ catheter
- Total MP released (mg)/1″ catheter ([1]; treatment 9 hrs (100% PG, 9% MP, 2% PP), time 15 days): 3.734 mg/1″ catheter
- Total MP released (mg)/1″ catheter ([1]; treatment 9 hrs (100% PG, 9% MP, 2% PP), time 18 days): 3.788 mg/1″ catheter
- Total MP released (mg)/1″ catheter ([1]; treatment 9 hrs (100% PG, 9% MP, 2% PP), time 22 days): 3.832 mg/1″ catheter
- Total MP released (mg)/1″ catheter ([1]; treatment 9 hrs (100% PG, 9% MP, 2% PP), time 29 days): 3.872 mg/1″ catheter
- Total MP released (mg)/1″ catheter ([1]; treatment 9 hrs (100% PG, 9% MP, 2% PP), time 36 days): 3.912 mg/1″ catheter
- Total MP released (mg)/1″ catheter ([1]; treatment 9 hrs (100% PG, 9% MP, 2% PP), time 50 days): 3.944 mg/1″ catheter
- Total MP released (mg)/1″ catheter ([1]; treatment 9 hrs (100% PG, 9% MP, 2% PP), time 67 days): 3.958 mg/1″ catheter
- Total MP released (mg)/1″ catheter ([1]; treatment 9 hrs (100% PG, 9% MP, 2% PP), time 81 days): 3.967 mg/1″ catheter
- time until perfused through the membrane and detected in the lower chamber ([2]; 0.60 mm polycarbonate membrane, 37° C.): within two hours
- ratio MP/PP from this sample ([2]; lower chamber sample): 4.7
- MP Conc [2, 3]: 0.047 mg/mL
- Total mg MP in 10.5 mL lower chamber [2, 3]: 0.4935 mg
